Data as given in paper PMC5072725, “A Novel Diphenylthiosemicarbazide Is a Potential Insulin Secretagogue for Anti-Diabetic Agent” (PLoS ONE, 2016).

Biological target: T1, β-cell KATP channel (human SUR1 and human Kir6.2) (Homo sapiens, UniProt Q09428)
T1 construct: gene ABCC8; SUR1 and Kir6.2 co-expressed in COS-1 cells; with ATP-sensitive inward rectifier potassium channel 11
Test: whole-cell patch clamp, inhibition of diazoxide-induced K+ current
Format: cell-based

T1 sequence (Q09428 whole entry): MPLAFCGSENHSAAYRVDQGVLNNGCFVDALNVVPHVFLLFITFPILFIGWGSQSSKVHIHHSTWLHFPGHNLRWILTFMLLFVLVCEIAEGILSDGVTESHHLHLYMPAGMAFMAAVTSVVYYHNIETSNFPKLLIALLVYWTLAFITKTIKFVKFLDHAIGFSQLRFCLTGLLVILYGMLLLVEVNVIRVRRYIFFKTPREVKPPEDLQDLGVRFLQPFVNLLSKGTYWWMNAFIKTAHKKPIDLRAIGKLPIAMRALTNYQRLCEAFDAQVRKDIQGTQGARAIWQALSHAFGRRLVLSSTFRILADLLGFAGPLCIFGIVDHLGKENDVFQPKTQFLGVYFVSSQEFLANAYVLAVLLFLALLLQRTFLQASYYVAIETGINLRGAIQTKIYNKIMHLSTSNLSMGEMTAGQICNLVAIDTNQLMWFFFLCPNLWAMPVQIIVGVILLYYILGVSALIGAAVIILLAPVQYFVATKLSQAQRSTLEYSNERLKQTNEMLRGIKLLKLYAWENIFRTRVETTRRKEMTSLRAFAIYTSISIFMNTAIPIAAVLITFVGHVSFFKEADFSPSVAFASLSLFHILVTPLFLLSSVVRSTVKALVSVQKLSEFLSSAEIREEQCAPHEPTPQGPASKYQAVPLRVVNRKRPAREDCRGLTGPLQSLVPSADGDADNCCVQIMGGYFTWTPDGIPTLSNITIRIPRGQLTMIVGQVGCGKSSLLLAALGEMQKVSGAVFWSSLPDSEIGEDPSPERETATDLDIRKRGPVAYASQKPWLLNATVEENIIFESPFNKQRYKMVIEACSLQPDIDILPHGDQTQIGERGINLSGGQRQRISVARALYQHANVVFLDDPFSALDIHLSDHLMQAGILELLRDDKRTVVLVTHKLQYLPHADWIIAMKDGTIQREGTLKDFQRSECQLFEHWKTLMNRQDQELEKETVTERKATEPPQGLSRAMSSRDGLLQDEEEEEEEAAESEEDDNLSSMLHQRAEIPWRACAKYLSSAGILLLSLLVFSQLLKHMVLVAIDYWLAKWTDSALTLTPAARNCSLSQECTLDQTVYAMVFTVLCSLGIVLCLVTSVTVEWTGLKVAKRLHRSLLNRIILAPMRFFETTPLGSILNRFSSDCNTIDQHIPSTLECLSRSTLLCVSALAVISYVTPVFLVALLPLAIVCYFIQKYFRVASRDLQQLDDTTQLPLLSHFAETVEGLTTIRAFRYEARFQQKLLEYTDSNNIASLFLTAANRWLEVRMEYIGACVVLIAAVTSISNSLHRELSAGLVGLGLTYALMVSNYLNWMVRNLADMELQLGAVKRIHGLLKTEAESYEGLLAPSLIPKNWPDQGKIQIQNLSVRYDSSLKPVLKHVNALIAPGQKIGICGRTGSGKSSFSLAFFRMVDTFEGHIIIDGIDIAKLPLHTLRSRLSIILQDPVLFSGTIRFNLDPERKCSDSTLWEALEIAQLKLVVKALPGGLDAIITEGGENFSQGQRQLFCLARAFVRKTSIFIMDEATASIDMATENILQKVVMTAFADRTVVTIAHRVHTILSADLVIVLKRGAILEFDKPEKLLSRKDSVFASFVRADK
T1 sequence (Q14654 whole entry partner): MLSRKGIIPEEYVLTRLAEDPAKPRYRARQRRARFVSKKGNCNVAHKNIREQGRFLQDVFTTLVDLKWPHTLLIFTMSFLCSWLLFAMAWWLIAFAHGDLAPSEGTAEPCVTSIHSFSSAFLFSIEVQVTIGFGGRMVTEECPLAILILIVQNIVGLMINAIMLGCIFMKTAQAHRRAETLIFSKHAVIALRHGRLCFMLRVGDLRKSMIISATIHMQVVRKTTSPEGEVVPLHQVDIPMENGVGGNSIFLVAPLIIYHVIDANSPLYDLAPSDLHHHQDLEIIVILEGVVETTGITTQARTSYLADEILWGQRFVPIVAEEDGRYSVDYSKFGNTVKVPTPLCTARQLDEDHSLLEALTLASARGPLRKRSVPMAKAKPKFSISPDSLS

Cc1ccc(S(=O)(=O)NC(=O)NN2CC3CCCC3C2)cc1 (stereo not shown) [gliclazide]
IC50: 860 nM
